Test results from patent US20090130128A1, “Antiinfective Proanthocyanidin Compounds and Methods of Use Thereof” (priority 2007, published 2009).
Where two headings read alike, the source gives them in different places.

What was measured:
Dengue-2 virus particles = test: Viral Direct Binding Assay with DART TOF-MS
HIV-1 virions = assay type: binding
Rhinovirus particles = assay type: binding
H5N1 virions = assay type: binding, Influenza A virus (H5N1); conditions: for relative percent of total binding species: bound to H5N1 after incubation in botanical extract
H1N1 virions = test: Viral Direct Binding Assay with DART TOF-MS; parameters: species or system Influenza A virus (H1N1); conditions: for relative percent of total binding species: bound to H1N1 after incubation in botanical extract
[1] = system: pseudotyped HIV-1 virions; assay type: cell-based; conditions: GHOST cells, range over clones
[2] = bound to Den-2 after incubation in botanical extract

Row | Molecule | Aver:Istro Ratio (Dengue-2 virus particles) | relative percent of total binding species (Dengue-2 virus particles) [%] | Aver:Istro Ratio (HIV-1 virions) | relative percent of total binding species (HIV-1 virions) [%] | Aver:Istro Ratio (Rhinovirus particles) | relative percent of total binding species (Rhinovirus particles) [%] | Aver:Istro Ratio (H5N1 virions; binding ratio Averionol to Istrocyanidin on H5N1) | relative percent of total binding species (H5N1 virions) [%] | Aver:Istro Ratio (H1N1 virions; binding ratio Averionol to Istrocyanidin on H1N1) | relative percent of total binding species (H1N1 virions) [%] | relative percent of total binding species (Dengue-2 virus particles; [2]) [%] | IC100 values for HIV-1 infection [1]
1 | COc1cc(OC)c2c(=O)c(O)c(-c3ccc(OC)c(OC)c3)oc2c1 [Averionol] | 3.7 | 78.5 | 5.9 | 85.6 | 2.3 | 69.5 | 14.0 | 86.9 | 18.9 | 69.8 |  | 
2 | Istrocyanidin |  |  |  | 14.4 |  | 30.5 |  | 6.2 |  | 3.7 | 21.2 | 
3 | Proanthocyanidin B2 |  |  |  |  |  |  |  |  |  |  |  | never achieved
4 | Tristenonol |  |  |  | 0 |  | 0 |  | 6.9 |  | 26.6 | 0 | 
